Positions of bridges follow the written chain, without caps; N, C: chain ends. Residues, ends and D or L forms follow the SMILES beside them.
Experiments:
[1] = Thermal stability of secondary structure by CD spectroscopy; format: physicochemical; conditions: 0.2 mg/mL in ddH2O, 20, 35, 50, 65, 80 and 95 °C, then returned to 20 °C, average of three scans
Method: In order to characterize the thermal stability of BmK86-P1, we analyzed the secondary structure of BmK86-P1 peptide in aqueous solutions at different temperatures (20 °C, 35 °C, 50 °C, 65 °C, 80 °C and 95 °C) by CD spectroscopy.
The secondary structures of BmK86-P1 and its mutants in water were measured by circular dichroism (CD) spectroscopy as previously described using a ChirascanTM V^100 spectrometer (Applied Photophysics, Surrey, UK). All the peptides were dissolved into ddH2O at a concentration of 0.2 mg/mL. At a range of wavelengths from 180 to 260 nm, the absorption spectra of peptides were recorded at room temperature. The speed scanning was 1 nm/s with a response time of 1 s. […] (deg·cm^2·dmol^−1).

[2] = target: T1, hKv1.2-V381Y (Homo sapiens, UniProt P16389, V381Y); assay: Whole-cell patch clamp, hKv1.2 channel mutant V381Y; format: cell-based; conditions: 100 nM peptide, HEK293T, mean ± S.E., n ≥ 3, SEM
T1 construct: expressed in transfected cells; host or cells: HEK293T
Method: To determine the functional sites of the hKv1.2 channel responsible for the selectivity of BmK86-P1, six hKv1.2 mutants were obtained based on sequence differences between the pore regions of the hKv1.2 and hKv1.1 channels (Figure 4A). Then, the activities of 100 nM BmK86-P1 on these six mutant channels were tested. […] The other three mutant channels (hKv1.2-D352E, hKv1.2-R354A and hKv1.2-P359S) still kept similar sensitivities toward BmK86-P1 compared with the wild-type hKv1.2 channel (Figure 4H,I,K,N).
All potassium channel expression vectors were given by others or constructed by ourselves. HEK293T cells were cultured in Dulbecco’s modified Eagle medium (Gibco, Pittsburgh, PA, USA) with 10% fetal bovine serum and penicillin/streptomycin (100 units/mL) in a 5% CO2 incubator at 37 °C. Potassium channel expression vectors and pEGFP-N1 were co-transfected into HEK293T cells using TurboFect in vitro Transfection Reagent (Thermo Scientific, Waltham, MA, USA) according to the manufacturer’s instructions. The potassium currents were recorded after transfection for 1 to 3 days.
(§1) The channel currents were measured and recorded by whole-cell patch clamp technology according to previously published references. […] The channel currents were recorded at room temperature (~25 °C) using an EPC 10 patch clamp amplifier. […]

[3] = target: T2, mKv4.1 channel (Mus musculus, UniProt Q03719); assay: Whole-cell patch clamp, mKv4.1 channel overexpressed in HEK293T cells; format: cell-based; conditions: 1 μM peptide, mean ± S.E., n ≥ 3, SEM
T2 construct: expressed in transfected cells; host or cells: HEK293T
T2 sequence (Q03719 1-651): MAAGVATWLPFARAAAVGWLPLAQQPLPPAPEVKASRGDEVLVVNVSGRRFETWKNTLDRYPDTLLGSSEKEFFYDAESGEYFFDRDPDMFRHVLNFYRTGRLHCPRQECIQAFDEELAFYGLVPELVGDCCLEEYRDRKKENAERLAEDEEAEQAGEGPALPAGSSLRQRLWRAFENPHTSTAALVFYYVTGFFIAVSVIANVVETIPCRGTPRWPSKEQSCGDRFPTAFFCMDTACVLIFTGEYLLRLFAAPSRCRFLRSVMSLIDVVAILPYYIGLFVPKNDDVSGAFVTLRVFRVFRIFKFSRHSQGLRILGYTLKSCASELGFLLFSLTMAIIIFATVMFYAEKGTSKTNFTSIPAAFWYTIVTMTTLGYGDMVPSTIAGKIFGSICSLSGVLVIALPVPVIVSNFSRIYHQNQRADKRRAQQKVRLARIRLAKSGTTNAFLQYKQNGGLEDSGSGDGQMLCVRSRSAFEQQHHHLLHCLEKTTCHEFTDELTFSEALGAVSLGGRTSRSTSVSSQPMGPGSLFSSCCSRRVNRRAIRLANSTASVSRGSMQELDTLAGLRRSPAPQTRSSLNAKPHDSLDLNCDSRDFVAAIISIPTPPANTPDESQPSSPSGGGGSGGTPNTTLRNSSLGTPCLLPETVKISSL
Method: To investigate the electrophysiological activities of BmK86-P1, the whole-cell patch clamp technique was applied to test the effects of BmK86-P1 on multiple potassium channels. The hKv1.1, hKv1.2, hKv1.3, hKv1.6, hKv3.2, mKv4.1, rKv4.2, rKv4.3 and hERG channels were overexpressed in HEK293T cells, then the inhibitory effects of BmK86-P1 at 1 μM on these potassium channels were measured. […] To further investigate the affinity of BmK86-P1 inhibiting the hKv1.2 channel, a dose-dependent study was performed by examining the inhibitory effects of different concentrations of BmK86-P1.
All potassium channel expression vectors were given by others or constructed by ourselves. HEK293T cells were cultured in Dulbecco’s modified Eagle medium (Gibco, Pittsburgh, PA, USA) with 10% fetal bovine serum and penicillin/streptomycin (100 units/mL) in a 5% CO2 incubator at 37 °C. […] The potassium currents were recorded after transfection for 1 to 3 days.
as §1
The ClampFit (Molecular Devices, Sunnyvale, CA, USA) and SigmaPlot software ([…], Chicago, IL, USA) were used to analyze the recorded data. […]

T1 sequence (P16389 whole entry V381Y): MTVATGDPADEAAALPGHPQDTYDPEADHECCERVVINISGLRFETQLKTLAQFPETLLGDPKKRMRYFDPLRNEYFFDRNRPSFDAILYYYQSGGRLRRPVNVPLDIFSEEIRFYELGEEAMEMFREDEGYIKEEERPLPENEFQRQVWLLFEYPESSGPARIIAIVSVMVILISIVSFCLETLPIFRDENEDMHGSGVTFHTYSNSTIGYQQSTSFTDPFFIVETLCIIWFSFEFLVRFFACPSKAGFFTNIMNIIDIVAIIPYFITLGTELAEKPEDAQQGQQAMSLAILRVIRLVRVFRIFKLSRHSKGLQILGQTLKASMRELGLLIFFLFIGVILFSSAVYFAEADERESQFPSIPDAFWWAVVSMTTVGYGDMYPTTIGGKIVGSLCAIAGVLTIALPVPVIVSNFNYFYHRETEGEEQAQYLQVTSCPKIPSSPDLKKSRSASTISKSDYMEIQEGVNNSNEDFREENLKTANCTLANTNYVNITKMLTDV

## CC[C@H](C)[C@@H]1NC(=O)[C@@H]2CSSC[C@H](NC(=O)[C@H](C)N)C(=O)N[C@@H](CO)C(=O)N[C@@H](CCCCN)C(=O)N3CCC[C@H]3C(=O)N[C@H]3CSSC[C@H](NC(=O)[C@H](CCCNC(=N)N)NC(=O)CNC(=O)[C@H](CC(N)=O)NC1=O)C(=O)N[C@@H](Cc1c[nH]cn1)C(=O)N[C@H](C(=O)N[C@@H](Cc1ccc(O)cc1)C(=O)N[C@@H](Cc1ccc(O)cc1)C(=O)O)CSSC[C@H](NC(=O)[C@H](Cc1ccc(O)cc1)NC(=O)[C@H](CCCCN)NC(=O)[C@H](CCCNC(=N)N)NC3=O)C(=O)N[C@@H]([C@@H](C)CC)C(=O)N[C@@H](CC(=O)O)C(=O)N[C@@H](CCCCN)C(=O)NCC(=O)N[C@@H](C)C(=O)N[C@@H](CCCNC(=N)N)C(=O)N[C@@H](CC(N)=O)C(=O)NCC(=O)N[C@@H](CCCCN)C(=O)N2 [BmK86-P1] (H-ACSKPCRKYCIDKGARNGKCINGRCHCYY-OH; disulfide 2-20, 6-25, 10-27 (inferred); N-terminus and C-terminus assumed)
[1]
  thermal stability of secondary structure: thermally stable
[2]
  inhibition of hKv1.2-V381Y channel currents: 1.6 ± 0.1%
[3]
  inhibition of Kv4.1 channel currents: 3.4 ± 1.1%
